How the values were obtained:
Type in all cases: physicochemical
[1] = Tryptophan fluorescence emission spectra at acidic and basic pH; conditions: POPC/POPS (9/1), Trp fluorescence, λex 280 nm
[2] = as above; conditions: POPC, Trp fluorescence, λex 280 nm
[3] = pKFI determination: tryptophan fluorescence pH titration; conditions: lipid:peptide 150:1; for pKFI in the presence of NaCl: 150 mM NaCl, POPC and POPC/POPS (9/1) gave similar pKFI; for effect of 150 mM NaCl on the pKFI: POPC vesicles, compared with no NaCl, result in words
[4] = pKFI determination: tryptophan fluorescence pH titration with PS in the vesicles; conditions: for PS50 (amount of PS needed to reach 50% of change in pKFI): hyperbolic fit (Eq. 2) of pKFI versus molar percent POPS, 0-20%
[5] = POPC/POPS vesicles, PS 0-20 mol%, lipid:peptide 200:1, 1 μM peptide

| Fluorescence spectral maxima ([1]; acidic pH (pH 4)) | Fluorescence spectral maxima ([1]; basic pH (pH 8)) | Fluorescence spectral maxima ([2]; acidic pH (pH 4)) | Fluorescence spectral maxima ([2]; basic pH (pH 8)) | pKFI in the presence of NaCl [3] | effect of 150 mM NaCl on the pKFI [3] | increase in the pKFI caused by PS [4, 5] | effect of PS on the pKFI ([4]; POPC/POPS vesicles, seven PS levels between 0-20%, result in words) | Sequence | PS50 (amount of PS needed to reach 50% of change in pKFI) [4] | decrease in the pKFI caused by PS [4, 5] |
| --- | --- | --- | --- | --- | --- | --- | --- | --- | --- | --- |
| 320.2 ± 1.7 nm | 331.7 ± 1.8 nm | 329.7 ± 1.2 nm | 342.1 ± 2.1 nm | ~5.4 | no change | ~0.4 pH units |  | GKAGKAGLLGLEGLLGLPLGLLEGLWLGLELEGN [K2-ATRAM] | 1.9 % PS |  |
| 330.8 ± 0.8 nm | 350.9 ± 1.0 nm | 327.3 ± 0.7 nm | 341.1 ± 2.3 nm | ~5.7 | decreased |  | not significantly affected | GLAGLAGLLGLEGLLGLPLGLLEGLWLGLELEGN [ATRAM, acidity-triggered rational membrane (ATRAM) peptide] |  |  |

| Sequence | Fluorescence spectral maxima ([1]; acidic pH (pH 4)) | Fluorescence spectral maxima ([1]; basic pH (pH 8)) | Fluorescence spectral maxima ([2]; acidic pH (pH 4)) | Fluorescence spectral maxima ([2]; basic pH (pH 8)) | pKFI in the presence of NaCl [3] | effect of 150 mM NaCl on the pKFI [3] | increase in the pKFI caused by PS [4, 5] | effect of PS on the pKFI ([4]; POPC/POPS vesicles, seven PS levels between 0-20%, result in words) | PS50 (amount of PS needed to reach 50% of change in pKFI) [4] | decrease in the pKFI caused by PS [4, 5] |
| --- | --- | --- | --- | --- | --- | --- | --- | --- | --- | --- |
| GYAGLAGLLGLEGLLGLPLGLLEGLWLGLELEGN [Y-ATRAM] | 320.5 ± 1.9 nm | 342.7 ± 2.3 nm | 324.5 ± 2.9 nm | 343.9 ± 3.6 nm | ~5.7 | decrease |  |  | 0.5 % PS | ~0.3 pH units |

From article doi:10.1101/623967v1 (bioRxiv, 2019)
